Data published in ChEMBL document CHEMBL1201862, “PubChem BioAssay data set” (2004).
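Dose response: 5 concentrations. Exposure: 48 h. Format: 96-well plates. Endpoint: linear interpolation; highest concentration if not reached. The concentration for 50% growth inhibition is given as GI50.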 The source made the active and inactive calls. Rule as the data show it: active = GI50 up to about 1.1 µM and inactive = higher.

What was measured:
Test in all cases: NCI anticancer screen, dose series, 48 h
[1] = test system: A549
[2] = test system: NCI-H460
[3] = test system: UO-31
[4] = test system: SF-268
[5] = test system: HOP-62
[6] = test system: MOLT-4
[7] = test system: MDA-MB-435
[8] = test system: OVCAR-5
[9] = test system: EKVX
[10] = test system: HOP-92
[11] = test system: IGROV-1
[12] = test system: K562
[13] = test system: HCT-15
[14] = test system: NCI/ADR-RES
[15] = test system: HCC 2998
[16] = test system: OVCAR-4
[17] = test system: RPMI-8226
[18] = test system: SN12C
[19] = test system: DU-145
[20] = test system: SF-295
[21] = test system: A498
[22] = test system: OVCAR-8
[23] = test system: SNB-19
[24] = test system: T47D
[25] = test system: NCI-H522
[26] = test system: SK-MEL-28
[27] = test system: U-251
[28] = test system: BT-549
[29] = test system: RXF 393
[30] = test system: ACHN
[31] = test system: 786-0
[32] = test system: UACC-257
[33] = test system: KM12
[34] = test system: SF-539
[35] = test system: HT-29
[36] = test system: M14
[37] = test system: MDA-MB-231
[38] = test system: SK-MEL-2
[39] = test system: LOX IMVI
[40] = test system: CAKI-1
[41] = test system: SW-620
[42] = test system: TK-10
[43] = test system: HL-60
[44] = test system: OVCAR-3
[45] = test system: HCT-116
[46] = test system: SK-MEL-5
[47] = test system: NCI-H226
[48] = test system: MDA-N
[49] = test system: COLO 205
[50] = test system: SNB-75
[51] = test system: SK-OV-3
[52] = test system: NCI-H23
[53] = test system: CCRF-CEM
[54] = test system: MCF7
[55] = test system: SR
[56] = test system: PC-3
[57] = test system: Hs-578T
[58] = test system: Malme-3M
[59] = test system: UACC-62

For `CSc1ccc2c(cc1=O)[C@@H](NC(=O)c1ccc(N)cc1)CCc1cc(O)c(O)c(O)c1-2`, the GI50 [1] was 19.1 µM (inactive), the GI50 [2] was 15 µM (inactive) and the GI50 [3] was 20.3 µM (inactive). The GI50 [4] was 14.3 µM (inactive), the GI50 [5] was 14.4 µM (inactive) and the GI50 [6] was 33.1 µM (inactive). The GI50 [7] was 14.5 µM (inactive), the GI50 [8] was 22 µM (inactive) and the GI50 [9] was 36.4 µM (inactive). For the same compound, the GI50 [10] was 29.4 µM (inactive), the GI50 [11] was 20.4 µM (inactive) and the GI50 [12] was 12.1 µM (inactive). For the same compound, the GI50 [13] was 11.2 µM, the GI50 [14] was 18.6 µM (inactive) and the GI50 [15] was 13.6 µM (inactive). For the same compound, the GI50 [16] was 16.1 µM (inactive), the GI50 [17] was 35 µM (inactive) and the GI50 [18] was 29.5 µM (inactive). For the same compound, the GI50 [19] was > 75 µM (inactive), the GI50 [20] was 17.2 µM (inactive) and the GI50 [21] was 73.8 µM (inactive). The GI50 [22] was 26.5 µM (inactive), the GI50 [23] was 21.8 µM (inactive) and the GI50 [24] was 44 µM (inactive). The GI50 [25] was 13.8 µM (inactive), the GI50 [26] was > 75 µM (inactive) and the GI50 [27] was 19.4 µM (inactive). For the same compound, the GI50 [28] was 16.9 µM (inactive), the GI50 [29] was > 75 µM (inactive) and the GI50 [30] was 17 µM (inactive). For the same compound, the GI50 [31] was 12.8 µM (inactive) and the GI50 [32] was 20.8 µM (inactive).
In the case of `CC(=O)/C(=C/n1c(=S)[nH]c2ccccc21)C(=O)Nc1ccccc1C`, the GI50 [33] is reported as > 100 µM (inactive), the GI50 [1] is reported as > 100 µM (inactive) and the GI50 [34] is reported as > 100 µM (inactive). The GI50 [2] was > 100 µM (inactive), the GI50 [3] was > 100 µM (inactive) and the GI50 [35] was > 100 µM (inactive). For the same compound, the GI50 [36] was > 100 µM (inactive), the GI50 [4] was > 100 µM (inactive) and the GI50 [5] was > 100 µM (inactive). For the same compound, the GI50 [6] was > 100 µM (inactive), the GI50 [37] was > 100 µM (inactive) and the GI50 [38] was > 100 µM (inactive). The GI50 [7] was > 100 µM (inactive), the GI50 [8] was > 100 µM (inactive) and the GI50 [9] was > 100 µM (inactive). For the same compound, the GI50 [10] was > 100 µM (inactive), the GI50 [11] was > 100 µM (inactive) and the GI50 [39] was > 100 µM (inactive). The GI50 [13] was over 100 µM, the GI50 [40] was > 100 µM (inactive) and the GI50 [41] was > 100 µM (inactive). For the same compound, the GI50 [42] was > 100 µM (inactive), the GI50 [14] was > 100 µM (inactive) and the GI50 [43] was > 100 µM (inactive). For the same compound, the GI50 [15] was > 100 µM (inactive), the GI50 [16] was > 100 µM (inactive) and the GI50 [44] was > 100 µM (inactive). For the same compound, the GI50 [45] was > 100 µM (inactive), the GI50 [46] was > 100 µM (inactive) and the GI50 [18] was > 100 µM (inactive). For the same compound, the GI50 [19] was > 100 µM (inactive), the GI50 [20] was > 100 µM (inactive) and the GI50 [47] was > 100 µM (inactive). The GI50 [48] was > 100 µM (inactive), the GI50 [21] was > 100 µM (inactive) and the GI50 [22] was > 100 µM (inactive). For the same compound, the GI50 [49] was > 100 µM (inactive), the GI50 [23] was > 100 µM (inactive) and the GI50 [24] was > 100 µM (inactive). The GI50 [26] was > 100 µM (inactive), the GI50 [27] was > 100 µM (inactive) and the GI50 [28] was > 100 µM (inactive). For the same compound, the GI50 [29] was > 100 µM (inactive), the GI50 [50] was > 100 µM (inactive) and the GI50 [51] was > 100 µM (inactive). The GI50 [30] was > 100 µM (inactive), the GI50 [31] was > 100 µM (inactive) and the GI50 [52] was > 100 µM (inactive). For the same compound, the GI50 [32] was > 100 µM (inactive).
In the case of `CCN1CCN=c2c3cc(OC)ccc3n3cnc4ccc1c2c43`, the GI50 [33] is reported as 0.395 µM (active), the GI50 [1] is reported as 0.192 µM (active) and the GI50 [34] is reported as 0.123 µM (active). The GI50 [2] was 0.0948 µM (active), the GI50 [3] was 0.147 µM (active) and the GI50 [35] was 0.173 µM (active). The GI50 [36] was 0.245 µM (active), the GI50 [4] was 0.427 µM (active) and the GI50 [5] was 0.193 µM (active). For the same compound, the GI50 [6] was 0.0879 µM (active), the GI50 [37] was 0.275 µM (active) and the GI50 [53] was 0.102 µM (active). The GI50 [54] was 0.219 µM (active), the GI50 [38] was 0.238 µM (active) and the GI50 [7] was 0.197 µM (active). The GI50 [8] was 0.316 µM (active), the GI50 [9] was 0.231 µM (active) and the GI50 [10] was 0.776 µM (active). The GI50 [11] was 2.02 µM (inactive), the GI50 [39] was 0.154 µM (active) and the GI50 [12] was 0.0555 µM (active). For the same compound, the GI50 [55] was 0.0283 µM (active), the GI50 [13] was 0.177 µM and the GI50 [40] was 0.34 µM (active). The GI50 [41] was 0.824 µM (active), the GI50 [42] was 0.411 µM (active) and the GI50 [56] was 0.207 µM (active). The GI50 [14] was 0.145 µM (active), the GI50 [43] was 0.206 µM (active) and the GI50 [15] was 0.244 µM (active). For the same compound, the GI50 [16] was 0.371 µM (active), the GI50 [57] was 0.313 µM (active) and the GI50 [58] was 0.267 µM (active). The GI50 [44] was 0.226 µM (active), the GI50 [45] was 0.0565 µM (active) and the GI50 [46] was 0.27 µM (active). The GI50 [17] was 0.171 µM (active), the GI50 [18] was 0.142 µM (active) and the GI50 [19] was 0.483 µM (active). For the same compound, the GI50 [59] was 0.246 µM (active), the GI50 [20] was 0.26 µM (active) and the GI50 [47] was 0.323 µM (active). For the same compound, the GI50 [48] was 0.256 µM (active), the GI50 [21] was 0.225 µM (active) and the GI50 [22] was 0.0863 µM (active). The GI50 [49] was 0.15 µM (active), the GI50 [23] was 0.301 µM (active) and the GI50 [24] was 0.39 µM (active). For the same compound, the GI50 [25] was 0.00865 µM (active), the GI50 [26] was 0.506 µM (active) and the GI50 [27] was 0.192 µM (active). The GI50 [29] was 0.33 µM (active), the GI50 [50] was 0.456 µM (active) and the GI50 [51] was 0.348 µM (active). The GI50 [30] was 0.131 µM (active), the GI50 [31] was 0.0759 µM (active) and the GI50 [52] was 0.328 µM (active). For the same compound, the GI50 [32] was 0.553 µM (active).
In the case of `O=c1c(O)c(-c2ccccc2)oc2c(CP(=O)(O)O)cccc12`, the GI50 [1] is reported as > 100 µM (inactive), the GI50 [34] is reported as > 100 µM (inactive) and the GI50 [2] is reported as > 100 µM (inactive). For the same compound, the GI50 [36] was > 100 µM (inactive), the GI50 [5] was 8.55 µM (inactive) and the GI50 [6] was > 100 µM (inactive). The GI50 [37] was > 100 µM (inactive), the GI50 [53] was > 100 µM (inactive) and the GI50 [54] was > 100 µM (inactive). The GI50 [38] was > 100 µM (inactive), the GI50 [7] was > 100 µM (inactive) and the GI50 [8] was > 100 µM (inactive). For the same compound, the GI50 [9] was > 100 µM (inactive), the GI50 [11] was > 100 µM (inactive) and the GI50 [12] was > 100 µM (inactive). For the same compound, the GI50 [55] was > 100 µM (inactive), the GI50 [13] was over 100 µM and the GI50 [40] was > 100 µM (inactive). The GI50 [42] was > 100 µM (inactive), the GI50 [56] was > 100 µM (inactive) and the GI50 [15] was > 100 µM (inactive). For the same compound, the GI50 [16] was > 100 µM (inactive), the GI50 [58] was > 100 µM (inactive) and the GI50 [44] was > 100 µM (inactive). For the same compound, the GI50 [45] was > 100 µM (inactive), the GI50 [46] was > 100 µM (inactive) and the GI50 [18] was > 100 µM (inactive). For the same compound, the GI50 [19] was > 100 µM (inactive), the GI50 [59] was > 100 µM (inactive) and the GI50 [20] was > 100 µM (inactive). The GI50 [48] was > 100 µM (inactive), the GI50 [21] was > 100 µM (inactive) and the GI50 [49] was > 100 µM (inactive). The GI50 [24] was > 100 µM (inactive), the GI50 [25] was > 100 µM (inactive) and the GI50 [27] was > 100 µM (inactive). For the same compound, the GI50 [28] was > 100 µM (inactive), the GI50 [29] was > 100 µM (inactive) and the GI50 [51] was > 100 µM (inactive). The GI50 [31] was > 100 µM (inactive), the GI50 [52] was > 100 µM (inactive) and the GI50 [32] was > 100 µM (inactive).
